Experiments:
IKZF1 = target: T1, IKZF1 (Homo sapiens, UniProt Q13422+Q96SW2); experiment: Western-blot assay of substrate protein degradation in hPBMCs, IKZF1; format: cell-based; conditions: 24 hours of compound treatment, compounds tested at 50 nM and 500 nM (concentration of the table not stated)
T1 construct: endogenous in cells; host or cells: hPBMCs (Milecell Biotechnologies)

IKZF3 = target: T2, IKZF3 (Homo sapiens, UniProt Q96SW2+Q9UKT9); experiment: Western-blot assay of substrate protein degradation in hPBMCs, IKZF3; format: cell-based; conditions: 24 hours of compound treatment, compounds tested at 50 nM and 500 nM (concentration of the table not stated)
T2 construct: endogenous in cells; host or cells: hPBMCs (Milecell Biotechnologies)
T2 sequence (Q9UKT9 whole entry): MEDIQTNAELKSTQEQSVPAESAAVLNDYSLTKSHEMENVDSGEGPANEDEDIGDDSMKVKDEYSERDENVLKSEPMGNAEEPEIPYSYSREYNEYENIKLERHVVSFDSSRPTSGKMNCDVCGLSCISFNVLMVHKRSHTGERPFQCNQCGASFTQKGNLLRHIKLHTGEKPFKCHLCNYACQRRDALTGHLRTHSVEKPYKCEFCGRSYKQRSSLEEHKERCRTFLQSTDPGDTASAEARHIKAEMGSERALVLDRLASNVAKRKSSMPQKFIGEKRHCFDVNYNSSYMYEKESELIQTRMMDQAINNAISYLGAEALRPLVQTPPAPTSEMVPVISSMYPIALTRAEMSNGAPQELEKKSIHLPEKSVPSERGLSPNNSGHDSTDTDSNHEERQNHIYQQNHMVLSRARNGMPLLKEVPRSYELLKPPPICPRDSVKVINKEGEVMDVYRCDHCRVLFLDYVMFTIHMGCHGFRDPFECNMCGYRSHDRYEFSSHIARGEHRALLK
T2 sequence (Q96SW2 whole entry): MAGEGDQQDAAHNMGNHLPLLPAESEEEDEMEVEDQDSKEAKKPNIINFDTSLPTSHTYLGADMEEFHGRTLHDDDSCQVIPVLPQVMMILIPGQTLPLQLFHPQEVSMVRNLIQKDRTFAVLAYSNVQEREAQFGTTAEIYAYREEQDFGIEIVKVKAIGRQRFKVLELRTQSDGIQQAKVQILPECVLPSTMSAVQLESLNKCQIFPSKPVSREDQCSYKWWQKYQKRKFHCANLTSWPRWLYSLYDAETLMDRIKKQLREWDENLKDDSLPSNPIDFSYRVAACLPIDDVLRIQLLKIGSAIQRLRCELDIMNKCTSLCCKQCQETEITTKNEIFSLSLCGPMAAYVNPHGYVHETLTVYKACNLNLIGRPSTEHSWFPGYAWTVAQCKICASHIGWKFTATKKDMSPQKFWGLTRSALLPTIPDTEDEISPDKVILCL
T2 sequence (Q16531 whole entry partner): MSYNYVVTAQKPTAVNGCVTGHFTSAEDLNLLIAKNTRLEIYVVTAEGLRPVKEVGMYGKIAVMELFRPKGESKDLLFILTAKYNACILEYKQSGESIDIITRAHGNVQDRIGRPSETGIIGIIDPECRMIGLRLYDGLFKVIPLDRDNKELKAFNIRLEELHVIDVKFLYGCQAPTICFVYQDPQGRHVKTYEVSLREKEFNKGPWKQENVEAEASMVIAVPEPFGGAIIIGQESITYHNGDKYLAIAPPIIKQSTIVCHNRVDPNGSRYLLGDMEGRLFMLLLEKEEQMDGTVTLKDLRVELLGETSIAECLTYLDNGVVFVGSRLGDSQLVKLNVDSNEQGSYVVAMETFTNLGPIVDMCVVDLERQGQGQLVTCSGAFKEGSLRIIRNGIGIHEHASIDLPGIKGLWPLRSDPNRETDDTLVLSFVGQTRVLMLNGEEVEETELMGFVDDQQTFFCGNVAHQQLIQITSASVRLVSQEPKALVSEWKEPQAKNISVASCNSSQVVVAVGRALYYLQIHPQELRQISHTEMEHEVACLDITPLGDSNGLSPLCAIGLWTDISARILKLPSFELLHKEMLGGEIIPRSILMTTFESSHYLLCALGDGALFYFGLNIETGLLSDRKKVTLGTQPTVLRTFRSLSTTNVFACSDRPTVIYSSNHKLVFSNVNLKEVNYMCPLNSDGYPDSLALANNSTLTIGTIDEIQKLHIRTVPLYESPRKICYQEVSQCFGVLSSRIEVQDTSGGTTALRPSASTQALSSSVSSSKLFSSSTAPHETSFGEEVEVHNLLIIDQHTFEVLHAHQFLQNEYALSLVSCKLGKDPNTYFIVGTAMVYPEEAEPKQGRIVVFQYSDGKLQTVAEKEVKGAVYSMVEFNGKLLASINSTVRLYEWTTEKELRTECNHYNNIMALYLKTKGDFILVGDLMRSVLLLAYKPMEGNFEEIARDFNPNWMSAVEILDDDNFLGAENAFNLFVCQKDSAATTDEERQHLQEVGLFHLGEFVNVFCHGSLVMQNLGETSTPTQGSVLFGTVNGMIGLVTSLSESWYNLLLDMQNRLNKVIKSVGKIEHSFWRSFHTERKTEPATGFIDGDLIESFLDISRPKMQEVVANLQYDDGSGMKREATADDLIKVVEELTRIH

IKZF2 = target: T3, IKZF2 (Homo sapiens, UniProt Q96SW2+Q9UKS7); experiment: Western-blot assay of substrate protein degradation in hPBMCs, IKZF2; format: cell-based; conditions: 24 hours of compound treatment, compounds tested at 50 nM and 500 nM (concentration of the table not stated)
T3 construct: endogenous in cells; host or cells: hPBMCs (Milecell Biotechnologies)

MM.1S = experiment: Tumor cell proliferation inhibition (CellTiter-Meiluncell Luminescent Cell Viability Assay), MM.1S; conditions: Homo sapiens, MM1.S, read-out: inhibitory activity (IC50, nM) against tumor cells proliferation, MM.1S
WEE1 = target: T4, WEE1 (Homo sapiens, UniProt P30291+Q96SW2); experiment: Western-blot assay of substrate protein degradation in hPBMCs, WEE1; format: cell-based; conditions: 24 hours of compound treatment, compounds tested at 50 nM and 500 nM (concentration of the table not stated)
T4 construct: endogenous in cells; host or cells: hPBMCs (Milecell Biotechnologies)
T4 sequence (P30291 whole entry): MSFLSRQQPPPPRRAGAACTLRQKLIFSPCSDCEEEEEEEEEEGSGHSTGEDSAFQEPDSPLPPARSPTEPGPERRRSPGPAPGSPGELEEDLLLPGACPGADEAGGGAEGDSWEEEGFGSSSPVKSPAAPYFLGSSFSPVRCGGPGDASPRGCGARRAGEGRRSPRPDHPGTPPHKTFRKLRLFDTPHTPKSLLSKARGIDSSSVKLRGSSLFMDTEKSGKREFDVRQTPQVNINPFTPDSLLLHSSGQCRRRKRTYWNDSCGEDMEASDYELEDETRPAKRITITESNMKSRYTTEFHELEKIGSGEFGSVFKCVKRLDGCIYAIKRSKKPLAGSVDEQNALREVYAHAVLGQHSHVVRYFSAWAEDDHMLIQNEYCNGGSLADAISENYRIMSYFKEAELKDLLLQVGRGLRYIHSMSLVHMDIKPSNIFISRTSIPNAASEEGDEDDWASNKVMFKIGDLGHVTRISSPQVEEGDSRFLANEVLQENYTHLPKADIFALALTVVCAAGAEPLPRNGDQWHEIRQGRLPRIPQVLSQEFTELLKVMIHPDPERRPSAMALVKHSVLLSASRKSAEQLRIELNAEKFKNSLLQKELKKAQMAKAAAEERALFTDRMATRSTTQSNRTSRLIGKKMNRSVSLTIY
T4 sequence (Q96SW2 whole entry): as the sequence (Q96SW2 whole entry) above
T4 sequence (Q16531 whole entry partner): as the sequence (Q16531 whole entry partner) above

GSPT1 = target: T5, GSPT1 (Homo sapiens, UniProt P15170+Q96SW2); experiment: Western-blot assay of substrate protein degradation in hPBMCs, GSPT1; format: cell-based; conditions: 24 hours of compound treatment, compounds tested at 50 nM and 500 nM (concentration of the table not stated)
T5 construct: endogenous in cells; host or cells: hPBMCs (Milecell Biotechnologies)
T5 sequence (P15170 whole entry): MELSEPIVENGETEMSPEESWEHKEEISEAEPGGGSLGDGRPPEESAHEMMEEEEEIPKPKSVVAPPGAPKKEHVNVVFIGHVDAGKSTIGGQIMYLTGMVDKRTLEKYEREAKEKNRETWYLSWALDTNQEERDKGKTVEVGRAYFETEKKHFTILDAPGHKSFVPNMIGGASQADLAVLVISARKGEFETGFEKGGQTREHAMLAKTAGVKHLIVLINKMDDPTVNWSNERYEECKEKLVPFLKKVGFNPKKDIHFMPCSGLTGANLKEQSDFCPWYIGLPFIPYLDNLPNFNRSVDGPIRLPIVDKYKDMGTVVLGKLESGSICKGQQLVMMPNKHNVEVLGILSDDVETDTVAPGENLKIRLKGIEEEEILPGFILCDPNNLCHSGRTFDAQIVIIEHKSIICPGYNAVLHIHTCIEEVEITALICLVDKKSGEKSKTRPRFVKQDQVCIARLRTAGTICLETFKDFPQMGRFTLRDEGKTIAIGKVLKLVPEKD
T5 sequence (Q96SW2 whole entry): as the sequence (Q96SW2 whole entry) above
T5 sequence (Q16531 whole entry partner): as the sequence (Q16531 whole entry partner) above

CK1α = target: T6, CK1α (Homo sapiens, UniProt P48729+Q96SW2); experiment: Western-blot assay of substrate protein degradation in hPBMCs, CK1α; format: cell-based; conditions: 24 hours of compound treatment, compounds tested at 50 nM and 500 nM (concentration of the table not stated)
T6 construct: endogenous in cells; host or cells: hPBMCs (Milecell Biotechnologies)
T6 sequence (P48729 whole entry): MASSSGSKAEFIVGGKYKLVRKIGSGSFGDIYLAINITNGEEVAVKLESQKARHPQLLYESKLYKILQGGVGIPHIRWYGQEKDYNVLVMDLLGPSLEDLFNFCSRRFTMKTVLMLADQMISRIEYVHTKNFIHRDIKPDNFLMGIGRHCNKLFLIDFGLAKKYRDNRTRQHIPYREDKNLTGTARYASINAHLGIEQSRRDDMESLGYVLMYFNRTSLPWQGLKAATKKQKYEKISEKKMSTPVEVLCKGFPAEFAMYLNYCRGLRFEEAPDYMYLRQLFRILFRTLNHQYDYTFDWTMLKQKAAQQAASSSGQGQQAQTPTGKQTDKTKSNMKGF
T6 sequence (Q96SW2 whole entry): as the sequence (Q96SW2 whole entry) above
T6 sequence (Q16531 whole entry partner): as the sequence (Q16531 whole entry partner) above

[1] = target: T7, human Cereblon WT GST-tagged protein (Homo sapiens, UniProt Q96SW2); experiment: CRBN-binding affinity by HTRF (CEREBLON BINDING kit); conditions: HTRF inhibitory activity, CEREBLON BINDING kit; read-out: HTRF IC50
T7 construct: purchased CISBIO 64BDCRBNPEH
T7 sequence (Q96SW2 whole entry): as the sequence (Q96SW2 whole entry) above

NCI-H1975 = experiment: Tumor cell proliferation inhibition (CellTiter-Meiluncell Luminescent Cell Viability Assay), NCI-H1975; conditions: Homo sapiens, NCI-H1975, read-out: inhibitory activity (IC50, nM) against tumor cells proliferation, H1975
Description: The tumor cells used herein were cultured in a cell culture medium listed in table 2 at 37°C in an incubator with 5% CO2. Prior to experimentation, all cell lines used were correctly identified by STR profiling, and tested negative for mycoplasma contamination using a mycoplasma detection kit through routine screenings.
On the following day, the test compounds of the present disclosure were subjected to serial dilution. […] Subsequently, 0.5 µL of the test compound dilution was transferred into the 96-well plate containing the cells, with each well containing 100 µL of cell culture medium. […] Into the 96-well plate, the diluted test compounds and corresponding detection reagents were added, resulting in final test compound concentrations of 500 nM and 10 nM, respectively. The experimental procedure is described below using the diluted 2 µM test compound as an example.
After the cells were treated with the compounds of the present disclosure for a specified period (the treatment durations were shown in Table 3), the cell viability assay reagent was added to the culture medium according to the kit's instructions to determine cell viability. […] All controls were treated using the same procedure as the compounds of the present disclosure. The growth inhibition curves for the compounds of the present disclosure were plotted using Prism GraphPad software, and the IC50 values were calculated therefrom.

Jurkat = experiment: Tumor cell proliferation inhibition (CellTiter-Meiluncell Luminescent Cell Viability Assay), Jurkat; conditions: Homo sapiens, read-out: inhibitory activity (IC50, nM) against tumor cells proliferation, Jurkat

T1 sequence (Q13422 whole entry): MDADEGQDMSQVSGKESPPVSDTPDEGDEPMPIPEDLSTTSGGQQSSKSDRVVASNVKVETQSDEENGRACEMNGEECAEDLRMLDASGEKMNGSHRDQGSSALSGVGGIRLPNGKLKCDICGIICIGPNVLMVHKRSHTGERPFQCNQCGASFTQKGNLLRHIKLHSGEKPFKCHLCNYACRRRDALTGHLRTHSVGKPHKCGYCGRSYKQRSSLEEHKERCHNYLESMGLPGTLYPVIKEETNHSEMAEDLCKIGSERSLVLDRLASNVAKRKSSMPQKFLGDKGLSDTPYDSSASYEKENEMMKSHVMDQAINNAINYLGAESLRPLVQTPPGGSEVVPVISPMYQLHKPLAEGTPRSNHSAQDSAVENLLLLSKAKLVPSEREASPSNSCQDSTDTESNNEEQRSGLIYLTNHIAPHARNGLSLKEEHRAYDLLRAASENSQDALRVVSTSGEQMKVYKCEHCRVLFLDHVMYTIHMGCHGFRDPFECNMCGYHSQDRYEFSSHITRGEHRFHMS
T1 sequence (Q96SW2 whole entry): as the sequence (Q96SW2 whole entry) above
T1 sequence (Q16531 whole entry partner): as the sequence (Q16531 whole entry partner) above

Row | Structure (SMILES) | IC50 (MM.1S) [nM] | IC50 [1] [nM] | IKZF 1 substrate protein remaining % (IKZF1) | IKZF3 substrate protein remaining % (IKZF3) | IKZF2 substrate protein remaining % (IKZF2) | Weel substrate protein remaining % (WEE1) | GSPT1 substrate protein remaining % (GSPT1) | CK1a substrate protein remaining % (CK1α) | IC50 (NCI-H1975) [nM] | IC50 (Jurkat) [nM]
1 | Cc1nc(C2=CCN(Cc3ccc4c(c3)CN(C3CCC(=O)NC3=O)C4=O)CC2)c2c3c(sc2n1)CCCC3 (stereo not drawn) [GT-04863, 3-(5-((4-(2-methyl-5,6,7,8-tetrahydrobenzo[4,5]thieno[2,3-d]pyrimidin-4-yl)-3,6-dihydropyridin-1 (2H)-yl)methyl)-1-oxoisoindolin-2-yl)piperidine-2,6-dione] | 10 to 50 | < 500 | A (0% ≤ substrate protein remaining % ≤ 80%) | A (0% ≤ substrate protein remaining % ≤ 80%) | A (0% ≤ substrate protein remaining % ≤ 80%) | A (0% ≤ substrate protein remaining % ≤ 80%) | A (0% ≤ substrate protein remaining % ≤ 80%) | A (0% ≤ substrate protein remaining % ≤ 80%) |  | 
2 | Cc1nc(N2CCN(Cc3ccc4c(c3)CN(C3CCC(=O)NC3=O)C4=O)CC2)c2c3c(sc2n1)CCCC3 (stereo not drawn) [GT-04900, 3-(5-((4-(2-methyl-5,6,7,8-tetrahydrobenzo[4,5]thieno[2,3-d]pyrimidin-4-yl)piperazin-1-yl)methyl)-1-oxoisoindolin-2-yl)piperidine-2,6-dione] | 10 to 50 | < 500 | A (0% ≤ substrate protein remaining % ≤ 80%) | A (0% ≤ substrate protein remaining % ≤ 80%) | A (0% ≤ substrate protein remaining % ≤ 80%) | B (80%< substrate protein remaining %≤ 100%) | B (80%< substrate protein remaining %≤ 100%) | A (0% ≤ substrate protein remaining % ≤ 80%) |  | 
3 | O=C1CCC(N2Cc3cc(CN4CCN(c5nc(N6CCOCC6)nc6ccsc56)CC4)ccc3C2=O)C(=O)N1 (stereo not drawn) [GT-04903, 3-(5-((4-(2-morpholinothieno[3,2-d]pyrimidin-4-yl)piperazin-1-yl)methyl)-1-oxoisoindolin-2-yl)piperidine-2,6-dione] | 10 to 50 | < 500 | B (80%< substrate protein remaining %≤ 100%) | A (0% ≤ substrate protein remaining % ≤ 80%) | A (0% ≤ substrate protein remaining % ≤ 80%) | B (80%< substrate protein remaining %≤ 100%) | A (0% ≤ substrate protein remaining % ≤ 80%) | A (0% ≤ substrate protein remaining % ≤ 80%) |  | 
4 | O=C1CCC(N2Cc3cc(CN4CCC(n5cnc6cc(F)ccc65)CC4)ccc3C2=O)C(=O)N1 (stereo not drawn) [GT-04905, 3-(5-((4-(5-fluoro-1H-benzo[d]imidazol-1-yl)piperidin-1-yl)methyl)-1-oxoisoindolin-2-yl)piperidine-2,6-dione] | 1 to 5 | < 500 | B (80%< substrate protein remaining %≤ 100%) | A (0% ≤ substrate protein remaining % ≤ 80%) | A (0% ≤ substrate protein remaining % ≤ 80%) | B (80%< substrate protein remaining %≤ 100%) | A (0% ≤ substrate protein remaining % ≤ 80%) | B (80%< substrate protein remaining %≤ 100%) | 100 to 500 | 100 to 500
5 | O=C1CCC(N2C(=O)c3ccc(CN4CCN(c5cccc6sccc56)CC4)cc3C2=O)C(=O)N1 (stereo not drawn) [GT-04915, 5-((4-(benzo[b]thiophen-4-yl)piperazin-1-yl)methyl)-2-(2,6-dioxopiperidin-3-yl)isoindoline-1,3-dione] | 100 to 500 |  | A (0% ≤ substrate protein remaining % ≤ 80%) | A (0% ≤ substrate protein remaining % ≤ 80%) | A (0% ≤ substrate protein remaining % ≤ 80%) | A (0% ≤ substrate protein remaining % ≤ 80%) | A (0% ≤ substrate protein remaining % ≤ 80%) | A (0% ≤ substrate protein remaining % ≤ 80%) | 500 to 1000 | 100 to 500
6 | Cc1nc(C2=CCN(Cc3ccc4c(c3)CN(C3CCC(=O)NC3=O)C4=O)CC2)c2c3c(sc2n1)CCC3 (stereo not drawn) [GT-05211, 3-(5-((4-(2-methyl-6,7-dihydro-5H-cyclopenta[4,5]thieno[2,3-d]pyrimidin-4-yl)-3,6-dihydropyridin-1(2H)-yl)methyl)-1-oxoisoindolin-2-yl)piperidine-2,6-dione] | 50 to 100 | < 500 | A (0% ≤ substrate protein remaining % ≤ 80%) | A (0% ≤ substrate protein remaining % ≤ 80%) | A (0% ≤ substrate protein remaining % ≤ 80%) | A (0% ≤ substrate protein remaining % ≤ 80%) | A (0% ≤ substrate protein remaining % ≤ 80%) | A (0% ≤ substrate protein remaining % ≤ 80%) |  | 

Continued, in another order:

Row | IC50 (MM.1S) [nM] | IC50 [1] [nM] | Structure (SMILES) | IKZF 1 substrate protein remaining % (IKZF1) | IKZF3 substrate protein remaining % (IKZF3) | IKZF2 substrate protein remaining % (IKZF2) | Weel substrate protein remaining % (WEE1) | GSPT1 substrate protein remaining % (GSPT1) | CK1a substrate protein remaining % (CK1α) | IC50 (NCI-H1975) [nM] | IC50 (Jurkat) [nM]
7 | 5 to 10 | < 500 | O=C1CCC(N2Cc3cc(CN4C[C@@H]5C[C@H]4CN5c4cccc(Cl)c4Cl)ccc3C2=O)C(=O)N1 (stereo partly drawn) [GT-04898, 3-(5-(((1S,4S)-5-(2,3-dichlorophenyl)-2,5-diazabicyclo[2.2.1]heptan-2-yl)methyl)-1-oxoisoindolin-2-yl)piperidine-2,6-dione] | A (0% ≤ substrate protein remaining % ≤ 80%) | A (0% ≤ substrate protein remaining % ≤ 80%) | A (0% ≤ substrate protein remaining % ≤ 80%) | B (80%< substrate protein remaining %≤ 100%) | A (0% ≤ substrate protein remaining % ≤ 80%) | B (80%< substrate protein remaining %≤ 100%) |  | 
8 | 10 to 50 | < 500 | O=C1CCC(N2Cc3cc(CN4CCC(C5CCOc6cc(F)ccc65)CC4)ccc3C2=O)C(=O)N1 (stereo not drawn) [GT-04901, 3-(5-((4-(7-fluorochroman-4-yl)piperidin-1-yl)methyl)-1-oxoisoindolin-2-yl)piperidine-2,6-dione] | A (0% ≤ substrate protein remaining % ≤ 80%) | A (0% ≤ substrate protein remaining % ≤ 80%) | A (0% ≤ substrate protein remaining % ≤ 80%) | B (80%< substrate protein remaining %≤ 100%) | B (80%< substrate protein remaining %≤ 100%) | B (80%< substrate protein remaining %≤ 100%) |  | 
9 | 10 to 50 | < 500 | O=C1CCC(N2Cc3cc(CN4CC5CCC4CN5c4cccc(Cl)c4Cl)ccc3C2=O)C(=O)N1 (stereo not drawn) [GT-04930, 3-(5-((5-(2,3-dichlorophenyl)-2,5-diazabicyclo[2.2.2]octan-2-yl)methyl)-1-oxoisoindolin-2-yl)piperidine-2,6-dione] | A (0% ≤ substrate protein remaining % ≤ 80%) | A (0% ≤ substrate protein remaining % ≤ 80%) | A (0% ≤ substrate protein remaining % ≤ 80%) | A (0% ≤ substrate protein remaining % ≤ 80%) | A (0% ≤ substrate protein remaining % ≤ 80%) | B (80%< substrate protein remaining %≤ 100%) |  | 
